The results in this text go back to ChEMBL document CHEMBL1201862, “PubChem BioAssay data set” (2004).

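Grown in 96-well plates, cells were treated for 48 hours with each compound at five concentrations. Insufficient inhibition: endpoint recorded as highest concentration tested. At the GI50, growth is halved.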 Active and inactive are the calls of the source. Cut-off read from the data, not from the text of the source: active = GI50 up to about 1.1 µM and inactive = higher.

Test systems include 786-0; A498; A549; ACHN; CCRF-CEM; HCT-15; HOP-62; K562; MOLT-4; Malme-3M; NCI-H23; OVCAR-3; OVCAR-4; SNB-19; U-251; RXF 393.
Common to all, as to assay: growth of human tumour cells (NCI), 48 h

Regarding `Cc1cc(Cl)ccc1NC(=O)/C(=N\NC(C)(C)C)C(C#N)c1nc(-c2ccc([N+](=O)[O-])cc2)cs1` (stereo not drawn), the GI50 was > 100 µM (inactive) in the experiment with 786-0; > 100 µM (inactive) in the experiment on A498; > 100 µM (inactive) in the experiment on A549; > 100 µM (inactive) with ACHN; > 100 µM (inactive) with CCRF-CEM; over 100 µM in the experiment on HCT-15. For the same compound, the GI50 was > 100 µM (inactive) in the experiment on HOP-62; > 100 µM (inactive) with K562; 5.79 µM (inactive) in the experiment with MOLT-4; > 100 µM (inactive) with Malme-3M; > 100 µM (inactive) in the experiment on NCI-H23; > 100 µM (inactive) in the experiment on OVCAR-3. The GI50 in the experiment on OVCAR-4, with SNB-19 and in the experiment with U-251 was > 100 µM (inactive) throughout.

`C/C(CC(=O)Nc1ccccc1C)=N/NS(=O)(=O)c1ccc(C)cc1`: the GI50 with 786-0, in the experiment with A498, with A549, with ACHN, in the experiment on CCRF-CEM and with HOP-62 was > 100 µM (inactive) each time. For the same compound, the GI50 with K562, in the experiment on MOLT-4, with Malme-3M, with NCI-H23, in the experiment on OVCAR-3 and in the experiment on RXF 393 was > 100 µM (inactive) in each case. In addition, the GI50 with U-251 was > 100 µM (inactive).

For `Cc1cc(O)c2c3c1C(=O)Oc1c(CO)c(O)c(C(=O)O)c(c1O3)C=NN=Cc1c3c(c(CO)c(O)c1C(=O)O)OC(=O)c1c(C)cc(O)c(c1O3)C=NN=C2`, the GI50 with 786-0 was > 100 µM (inactive); in the experiment with A498, > 100 µM (inactive); in the experiment with A549, > 100 µM (inactive); in the experiment with ACHN, > 100 µM (inactive); with HCT-15, over 100 µM; in the experiment on HOP-62, > 100 µM (inactive). Further, the GI50 with Malme-3M is > 100 µM (inactive); in the experiment on NCI-H23 it was > 100 µM (inactive); in the experiment with OVCAR-3, 32.7 µM (inactive); in the experiment on OVCAR-4, > 100 µM (inactive); with RXF 393, > 100 µM (inactive); in the experiment with SNB-19 it was > 100 µM (inactive). For the same compound, in the experiment with U-251, the GI50 was > 100 µM (inactive).

Consider `CO[C@H](c1ccccc1)[C@H](C)N(C)c1ccc2ccccc2c1C1=NC(C)(C)CO1`, for which the GI50 in the experiment on 786-0 is 16.2 µM (inactive); in the experiment with A549 it was 15.9 µM (inactive); in the experiment with ACHN, 16 µM (inactive); with CCRF-CEM it was 15.4 µM (inactive); in the experiment on HCT-15, 14.6 µM; in the experiment on HOP-62, 21 µM (inactive). Moreover, the GI50 is 11.7 µM (inactive) in the experiment on K562; 9.02 µM (inactive) with MOLT-4; 16.3 µM (inactive) with Malme-3M; 14.8 µM (inactive) in the experiment on NCI-H23; 15.9 µM (inactive) in the experiment on OVCAR-3; > 10 µM (inactive) in the experiment with OVCAR-4. The GI50 in the experiment with RXF 393 was 13.8 µM (inactive); in the experiment with SNB-19 it was 24.8 µM (inactive); in the experiment with U-251, 16 µM (inactive).

`N#Cc1c(-c2ccc(Cl)c(Cl)c2)c(-c2ccc(Cl)c(Cl)c2)nn(CC(=O)O)c1=O`: the GI50 was > 100 µM (inactive) in the experiment with 786-0; 87.7 µM (inactive) with A549; 61.5 µM (inactive) with ACHN; 48.2 µM (inactive) with CCRF-CEM; 28.2 µM with HCT-15; > 100 µM (inactive) in the experiment on HOP-62. Besides, the GI50 is 43.9 µM (inactive) with K562; 68.4 µM (inactive) in the experiment on MOLT-4; > 100 µM (inactive) in the experiment on Malme-3M; 27.2 µM (inactive) in the experiment on OVCAR-3; > 100 µM (inactive) in the experiment with OVCAR-4; 20.1 µM (inactive) in the experiment on RXF 393. In the experiment on U-251, the GI50 was 32.1 µM (inactive).

Take `Cc1c(Cl)c2ccccc2n1S(=O)(=O)c1ccccc1`: the GI50 in the experiment on 786-0 is 59.6 µM (inactive); in the experiment with A549, 41.3 µM (inactive); in the experiment on ACHN it was 38.1 µM (inactive); in the experiment on CCRF-CEM it was 48.5 µM (inactive); in the experiment with HCT-15 it was 37.3 µM; in the experiment on HOP-62, 65.5 µM (inactive). The GI50 in the experiment with K562 is 38.5 µM (inactive); with MOLT-4, 37.4 µM (inactive); in the experiment with Malme-3M it was > 100 µM (inactive); in the experiment with NCI-H23 it was 41.1 µM (inactive); in the experiment with OVCAR-3, 45 µM (inactive); with OVCAR-4, 36.7 µM (inactive). Moreover, the GI50 in the experiment on SNB-19 was 78.7 µM (inactive); in the experiment on U-251, 88.9 µM (inactive).

For `O=c1c(-c2cccc3ccccc23)c(-c2cccc3ccccc23)c1=O`, the GI50 in the experiment on 786-0 was 0.535 µM (active); with A498 it was 2.45 µM (inactive); in the experiment with A549, 0.741 µM (active); with ACHN, 0.716 µM (active); in the experiment with CCRF-CEM, 0.395 µM (active); in the experiment with HCT-15 it was 2.42 µM. In addition, the GI50 was 3.57 µM (inactive) in the experiment with HOP-62; 0.161 µM (active) in the experiment on K562; 1.59 µM (inactive) with MOLT-4; 2.18 µM (inactive) in the experiment with Malme-3M; 2.49 µM (inactive) in the experiment with NCI-H23; 0.577 µM (active) with OVCAR-3. For the same compound, the figures for the GI50 in the experiment on RXF 393, in the experiment with SNB-19 and in the experiment with U-251 were 4.69 µM (inactive), 1.48 µM (inactive) and 3.31 µM (inactive), respectively.

As for `CCOC(=O)c1c[nH]c2c(ccc3nn(C)nc32)c1=O`, the GI50 in the experiment with 786-0 was > 100 µM (inactive); with A498, > 100 µM (inactive); in the experiment on A549 it was 34 µM (inactive); in the experiment on ACHN it was > 100 µM (inactive); in the experiment with CCRF-CEM, 34 µM (inactive); with HCT-15 it was 41 µM. For the same compound, the GI50 in the experiment on HOP-62 was > 100 µM (inactive); with K562 it was 49.7 µM (inactive); in the experiment on MOLT-4, > 100 µM (inactive); in the experiment on Malme-3M, > 100 µM (inactive); in the experiment with NCI-H23, > 100 µM (inactive); in the experiment with OVCAR-3, > 100 µM (inactive). Also, the figures for the GI50 in the experiment on RXF 393, with SNB-19 and in the experiment on U-251 were 30.4 µM (inactive), > 100 µM (inactive) and 25.8 µM (inactive), respectively.

As to `C/C(=N/N)c1ccc2[nH]c3c(C)cc([N+](=O)[O-])c(C)c3c2c1`, the GI50 is 4.6 µM (inactive) with 786-0; 11.1 µM (inactive) with A549; 9.38 µM (inactive) with ACHN; 3.13 µM (inactive) in the experiment with CCRF-CEM; 9.55 µM with HCT-15; 8.07 µM (inactive) in the experiment on HOP-62. For the same compound, the GI50 in the experiment with K562 was 2.93 µM (inactive); in the experiment on MOLT-4, 2.79 µM (inactive); in the experiment on Malme-3M, 4.33 µM (inactive); in the experiment with OVCAR-3 it was 14.9 µM (inactive); with OVCAR-4, 14.8 µM (inactive); in the experiment on SNB-19, 14.4 µM (inactive).

As for `Cn1ccnc1CCc1c(Cl)cccc1Cl`, the GI50 in the experiment with 786-0 was > 100 µM (inactive); with A498, > 100 µM (inactive); with A549, > 100 µM (inactive); in the experiment with ACHN, > 100 µM (inactive); in the experiment with CCRF-CEM, > 100 µM (inactive); with HCT-15 it was over 100 µM. For the same compound, the GI50 in the experiment with HOP-62, in the experiment with K562, in the experiment on MOLT-4, in the experiment on Malme-3M, in the experiment with NCI-H23 and with OVCAR-3 was > 100 µM (inactive) throughout. In addition, the GI50 in the experiment on OVCAR-4, with RXF 393 and with U-251 was > 100 µM (inactive) each time.

Take `CC1=C(C(=O)Nc2cc(=O)n(C)c(=O)n2C)C(c2cccc([N+](=O)[O-])c2)C(C(=O)Nc2cc(=O)n(C)c(=O)n2C)=C(C)N1`: the GI50 was > 100 µM (inactive) in the experiment on 786-0; 49.5 µM (inactive) in the experiment with A498; > 100 µM (inactive) in the experiment on A549; 89.7 µM (inactive) in the experiment with ACHN; > 100 µM (inactive) in the experiment with CCRF-CEM; > 100 µM (inactive) in the experiment on HOP-62. The GI50 in the experiment on K562 is 72.4 µM (inactive); with MOLT-4, 42.6 µM (inactive); with Malme-3M, > 100 µM (inactive); in the experiment on NCI-H23, > 100 µM (inactive); in the experiment on OVCAR-3, > 100 µM (inactive); in the experiment on OVCAR-4, > 100 µM (inactive). Moreover, the GI50 in the experiment on RXF 393, in the experiment on SNB-19 and with U-251 was > 100 µM (inactive) in each case.

Regarding `O=C1N[C@H](Cc2c[nH]cn2)C(=O)N2CCC[C@@H]12`, the GI50 is > 100 µM (inactive) in the experiment with 786-0; > 100 µM (inactive) with A549; > 100 µM (inactive) in the experiment with ACHN; > 100 µM (inactive) in the experiment with CCRF-CEM; over 100 µM in the experiment with HCT-15; > 100 µM (inactive) in the experiment on HOP-62. Moreover, the GI50 in the experiment on K562, in the experiment with MOLT-4, in the experiment on Malme-3M, in the experiment on NCI-H23, with OVCAR-3 and in the experiment with OVCAR-4 was > 100 µM (inactive) throughout. The GI50 in the experiment on RXF 393 and in the experiment on SNB-19 was > 100 µM (inactive) each time.

Consider `CCOC(=O)c1cnc2cc3cccccc3n2c1=O`, for which the GI50 with 786-0 was > 100 µM (inactive); with A498 it was > 100 µM (inactive); in the experiment with A549, > 100 µM (inactive); in the experiment with ACHN it was > 100 µM (inactive); in the experiment on CCRF-CEM, > 100 µM (inactive); in the experiment on HCT-15, over 100 µM. Besides, the GI50 with HOP-62, in the experiment with K562, with MOLT-4, in the experiment with NCI-H23, with OVCAR-3 and with OVCAR-4 was > 100 µM (inactive) each time. In addition, the GI50 in the experiment on RXF 393, in the experiment with SNB-19 and in the experiment with U-251 was > 100 µM (inactive) each time.

In the case of `COc1ccccc1/C=C/C(=O)c1sc(-c2cccnc2)nc1C`, the GI50 in the experiment on 786-0 was > 100 µM (inactive); in the experiment with A498, > 100 µM (inactive); with A549, > 100 µM (inactive); in the experiment on ACHN it was > 100 µM (inactive); with CCRF-CEM, 84.3 µM (inactive); in the experiment on HCT-15 it was over 100 µM. Further, the GI50 in the experiment on HOP-62 is > 100 µM (inactive); with K562, > 100 µM (inactive); in the experiment on MOLT-4, 61.7 µM (inactive); in the experiment with Malme-3M, > 100 µM (inactive); with NCI-H23, > 100 µM (inactive); in the experiment on OVCAR-3, > 100 µM (inactive). Moreover, the GI50 was 27.9 µM (inactive) in the experiment with RXF 393 and > 100 µM (inactive) in the experiment with U-251.
